From US20260262643A1, “HERBICIDAL BENZOXAZINES” (FMC CORPORATION, priority 2022, published 2026)

Experiments:
barnyardgrass [1] = assay: Test C preemergence; format: in vivo, Echinochloa crusgalli; conditions: 0 to 100 scale (0 no effect, 100 complete control)
Outline: (§1)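 Seeds sown in loam soil–sand blend received a directed preemergence soil spray of test chemical in non-phytotoxic solvent with surfactant; postemergence plants (2–10 cm, one- to two-leaf stage) were sprayed with the same formulation. Greenhouse-held 10 days, then visually rated for injury versus untreated controls, 0 (no effect) to 100 (complete control).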

ragweed [2] = assay: Test C postemergence; format: in vivo, Ambrosia artemisiifolia; conditions: 10 days
Outline: as §1

ducksalad = assay: Test D flooded paddy test; format: in vivo, Heteranthera limosa; conditions: 250 g ai/ha, applied to paddy water, visual rating after 13 to 14 days, scale 0 to 100 (0 no effect, 100 complete control)
Method: (§2) Plant species in the flooded paddy test selected from barnyardgrass (Echinochloa crus-galli), ducksalad (Heteranthera limosa), rice (Oryza sativa), and sedge, umbrella (small-flower umbrella sedge, Cyperus difformis) were grown to the 2-leaf stage for testing. At time of treatment, test pots were flooded to 3 cm above the soil surface, treated by application of test compounds directly to the paddy water, and then maintained at that water depth for the duration of the test. Treated plants and controls were maintained in a greenhouse for 13 to 14 days, after which time all species were compared to controls and visually evaluated. Plant response ratings, summarized in Table D, are based on a scale of 0 to 100 where 0 is no effect and 100 is complete control. A dash (-) response means no test result.

pigweed, palmer [3] = assay: Test C postemergence; format: in vivo, Amaranthus palmeri; conditions: 10 days
Outline: as §1

wheat [4] = assay: Test C preemergence; format: in vivo, Triticum aestivum; conditions: 0 to 100 scale (0 no effect, 100 complete control)
Outline: as §1

blackgrass [5] = assay: Test C postemergence; format: in vivo, Alopecurus myosuroides; conditions: 10 days
Outline: as §1

kochia [6] = assay: Test C preemergence; format: in vivo, Bassia scoparia; conditions: 0 to 100 scale (0 no effect, 100 complete control)
Outline: as §1

green foxtail = assay: Test C preemergence; format: in vivo, Setaria viridis; conditions: 0 to 100 scale (0 no effect, 100 complete control)
Outline: as §1

ragweed [7] = assay: Test C preemergence; format: in vivo, Ambrosia artemisiifolia; conditions: 0 to 100 scale (0 no effect, 100 complete control)
Outline: as §1

kochia [8] = assay: Test C postemergence; format: in vivo, Bassia scoparia; conditions: 10 days
Outline: as §1

ryegrass, Italian [9] = assay: Test C preemergence; format: in vivo, Lolium multiflorum; conditions: 0 to 100 scale (0 no effect, 100 complete control)
Outline: as §1

sedge, umbrella = assay: Test D flooded paddy test; format: in vivo, Cyperus difformis; conditions: 250 g ai/ha, applied to paddy water, visual rating after 13 to 14 days, scale 0 to 100 (0 no effect, 100 complete control)
Method: as §2

blackgrass [10] = assay: Test C preemergence; format: in vivo, Alopecurus myosuroides; conditions: 0 to 100 scale (0 no effect, 100 complete control)
Outline: as §1

wheat [11] = assay: Test C postemergence; format: in vivo, Triticum aestivum; conditions: 10 days
Outline: as §1

barnyardgrass [12] = assay: Test C postemergence; format: in vivo, Echinochloa crusgalli; conditions: 10 days
Outline: as §1

pigweed, palmer [13] = assay: Test C preemergence; format: in vivo, Amaranthus palmeri; conditions: 0 to 100 scale (0 no effect, 100 complete control)
Outline: as §1

corn [14] = assay: Test C postemergence; format: in vivo, Zea mays; conditions: 10 days
Outline: as §1

oat, wild [15] = assay: Test C preemergence; format: in vivo, Avena fatua; conditions: 0 to 100 scale (0 no effect, 100 complete control)
Outline: as §1

ryegrass, Italian [16] = assay: Test C postemergence; format: in vivo, Lolium multiflorum; conditions: 10 days
Outline: as §1

rice = assay: Test D flooded paddy test; format: in vivo, Oryza sativa; conditions: 250 g ai/ha, applied to paddy water, visual rating after 13 to 14 days, scale 0 to 100 (0 no effect, 100 complete control)
Method: as §2

soybean [17] = assay: Test C postemergence; format: in vivo, Glycine max; conditions: 10 days
Outline: as §1

oat, wild [18] = assay: Test C postemergence; format: in vivo, Avena fatua; conditions: 10 days
Outline: as §1

soybean [19] = assay: Test C preemergence; format: in vivo, Glycine max; conditions: 0 to 100 scale (0 no effect, 100 complete control)
Outline: as §1

horseweed = assay: Test C postemergence; format: in vivo, Erigeron canadensis; conditions: 10 days
Outline: as §1

barnyardgrass [20] = assay: Test D flooded paddy test; format: in vivo, Echinochloa crus-galli; conditions: 250 g ai/ha, applied to paddy water, visual rating after 13 to 14 days, scale 0 to 100 (0 no effect, 100 complete control)
Method: as §2

galium = assay: Test C postemergence; format: in vivo, Galium aparine; conditions: 10 days
Outline: as §1

corn [21] = assay: Test C preemergence; format: in vivo, Zea mays; conditions: 0 to 100 scale (0 no effect, 100 complete control)
Outline: as §1

[22] = Preemergence, 500 g ai/ha, visual rating after 10 days
[23] = Test C, preemergence, 125 g ai/ha
[24] = 125 g ai/ha, postemergence, 0 to 100 scale, 0 no effect, 100 complete control
[25] = Postemergence, 500 g ai/ha, visual 0 to 100 scale (0 no effect, 100 complete control)

COC[C@H]1CN(C(=O)c2cc(-n3cnc(C4CC4)n3)ccc2OC)c2cccc(Cl)c2O1 [Compound 235]
Plant response rating, Barnyardgrass (barnyardgrass [1]; [22]): 90 | Barnyardgrass plant response rating (barnyardgrass [1]; [23]): 50 | Plant response rating, Ragweed (ragweed [2]; [24]): 70 | Plant response rating, Ragweed (ragweed [2]; [25]): 80 | Plant response rating, Ducksalad (Flood) (ducksalad): 90 | Plant response rating, Pigweed, Palmer (pigweed, palmer [3]; [24]): 70 | Plant response rating, Pigweed, Palmer (pigweed, palmer [3]; [25]): 90 | Plant response rating, Wheat (wheat [4]; [22]): 30 | Wheat plant response rating (wheat [4]; [23]): 30 | Plant response rating, Blackgrass (blackgrass [5]; [24]): 70 | Plant response rating, Blackgrass (blackgrass [5]; [25]): 90 | Plant response rating, Kochia (kochia [6]; [22]): 90 | Kochia plant response rating (kochia [6]; [23]): 80 | Plant response rating, Foxtail, Green (green foxtail; [22]): 100 | Foxtail, Green plant response rating (green foxtail; [23]): 100 | Plant response rating, Ragweed (ragweed [7]; [22]): 60 | Ragweed plant response rating (ragweed [7]; [23]): 30 | Plant response rating, Kochia (kochia [8]; [24]): 90 | Plant response rating, Kochia (kochia [8]; [25]): 90 | Plant response rating, Ryegrass, Italian (ryegrass, Italian [9]; [22]): 90 | Ryegrass, Italian plant response rating (ryegrass, Italian [9]; [23]): 80 | Plant response rating, Sedge, Umbrella (Flood) (sedge, umbrella): 90 | Plant response rating, Blackgrass (blackgrass [10]; [22]): 80 | Blackgrass plant response rating (blackgrass [10]; [23]): 50 | Plant response rating, Wheat (wheat [11]; [24]): 30 | Plant response rating, Wheat (wheat [11]; [25]): 30 | Plant response rating, Barnyardgrass (barnyardgrass [12]; [24]): 90 | Plant response rating, Barnyardgrass (barnyardgrass [12]; [25]): 90 | Plant response rating, Pigweed, Palmer (pigweed, palmer [13]; [22]): 100 | Pigweed, Palmer plant response rating (pigweed, palmer [13]; [23]): 90 | Plant response rating, Corn (corn [14]; [24]): 50 | Plant response rating, Corn (corn [14]; [25]): 90 | Plant response rating, Oat, Wild (oat, wild [15]; [22]): 80 | Oat, Wild plant response rating (oat, wild [15]; [23]): 20 | Plant response rating, Ryegrass, Italian (ryegrass, Italian [16]; [24]): 70 | Plant response rating, Ryegrass, Italian (ryegrass, Italian [16]; [25]): 100 | Plant response rating, Rice (Flood) (rice): 15 | Plant response rating, Soybean (soybean [17]; [24]): 100 | Plant response rating, Soybean (soybean [17]; [25]): 100 | Plant response rating, Oat, Wild (oat, wild [18]; [24]): 40 | Plant response rating, Oat, Wild (oat, wild [18]; [25]): 60 | Plant response rating, Soybean (soybean [19]; [22]): 70 | Soybean plant response rating (soybean [19]; [23]): 60 | Plant response rating, Horseweed (horseweed; [24]): 30 | Plant response rating, Horseweed (horseweed; [25]): 70 | Plant response rating, Barnyardgrass (Flood) (barnyardgrass [20]): 10 | Plant response rating, Galium (galium; [24]): 100 | Plant response rating, Galium (galium; [25]): 100 | Plant response rating, Corn (corn [21]; [22]): 0 | Corn plant response rating (corn [21]; [23]): 20
